Reference: patent US20230330021A1, “DRUG-LOADED POLYMER VESICLE HAVING ASYMMETRIC MEMBRANE STRUCTURE, PREPARATION METHOD THEREFOR, AND APPLICATION THEREOF IN PREPARATION OF DRUGS FOR TREATING ACUTE MYELOID LEUKEMIA” (SOOCHOW UNIVERSITY, priority 2020, published 2023)
Where a name gives a salt, the structure may show the parent alone.

What was measured:
[1] = system: orthotopic MV4-11-GFP-Luc-bearing mice; test: Antitumor effect of A6-cPS-DNR in orthotopic AML model; assay type: in vivo; details: DNR 2 mg/kg
Method: (§1) Construction of an in situ MV4-11-GFP-Luc acute myeloid leukemia mouse model: All animal experiments and operations were approved by the Experimental Animal Center of Soochow University and the Animal Care and Use Committee of Soochow University. […] Mice were first irradiated with X-rays (2.0 Gy), then the antibody CD122 (10 mg/kg mouse) was injected intraperitoneally, and 6 hours later, MV4-11-GFP-Luc cells (1×10^5 cells/mouse) injected into mice by tail vein. After inoculation, the proliferation and proliferation of leukemia cells in mice were observed by in vivo imaging of small animals (FIG. 12).
Antitumor effect of A6-cPS-DNR in orthotopic MV4-11-GFP-Luc-bearing mice: To study the antitumor effect of A6-cPS-DNR on orthotopic MV4-11-GFP-Luc-bearing mice Tumor effect (refer to Example 11 for the design scheme). The DNR dose was 2 mg/kg, and A6-cPS-DNR was increased by 3 mg/kg in a high-dose group. The blank control group was injected with 100 µL PBS. There were 3 tumor-bearing mice in each group.

[2] = system: orthotopic MV4-11-GFP-Luc-bearing mice; test: Antitumor effect of A6-cPS-VCR in orthotopic AML model; assay type: in vivo
Method: as §1
Antitumor effect of A6-cPS-VCR in orthotopic MV4-11-GFP-Luc-bearing mice: To study the antitumor effect of A6-cPS-VCR on orthotopic MV4-11-GFP-Luc bearing mice Tumor effect, the following treatment plan was designed (FIG. 14): the first injection was injected on the 6th day after the inoculation, which was counted as the 0th day, and the second injection was given on the 2nd day. The dose of VCR was 0.50 mg/kg, and the control group was injected with 100 µL PBS. There were 10 tumor-bearing mice in each group. […] Mice lose weight before dying. […] And cPS-VCR (11 days), prolonged 1.5-2.7 times.
In order to further accurately and quantitatively analyze the proliferation of leukemia cells in mice, on the 4th day, 3 mice in each group were randomly selected for dissection, and the leukocytes in the liver, spleen and bone marrow were extracted, and the content of leukemia cells was detected by flow cytometry. And the liver, spleen and bone marrow slices were analyzed to observe the damage.
Acute myeloid leukemia cells abnormally proliferate in the bone marrow of mice, resulting in osteolytic lesions in mice. Therefore, micro-CT was used to evaluate the relevant indexes of the femur of each group of mice.

[3] = system: OCI-AML-3; test: Cell proliferation inhibition assay (CCK8 method); assay type: cell-based; details: CD44-negative OCI-AML-3
[4] = system: MV4-11 cells; test: Cell cycle, PI flow cytometry; assay type: cell-based; details: VCR 10 ng/mL
Method: The cell culture and treatment of the cell cycle experiment of A6-cPS-VCR refer to the above method, and only add 1 mL of PBS to resuspend the cells at the end. Then, 4 mL of ice 95% ethanol was added to fix the cells for 12 hours, and 400 µL of PI staining solution was added for 30 minutes in the dark on a shaker at 37° C. Finally, the cells were tested by flow cytometry.

[5] = system: MV4-11 cells; test: Apoptosis, AnnexinV/PI flow cytometry; assay type: cell-based; details: VCR 10 ng/mL
Method: A6-cPS-VCR-targeted polymer vesicle nanomedicine induces apoptosis and cell cycle: First, MV4-11 cells were plated in a 24-well plate at a density of 2 × 10^5 cells/well and cultured for 24 hours. 20 µL of A6-cPS-VCR, cPS-VCR or VCR (concentration of VCR was 10 ng/mL) was added, respectively, and 20 µL of PBS was added to the control group. After 4 hours of incubation, the supernatant was removed by centrifugation (3000 rpm, 10 minutes), then fresh RPMI-1640 complete medium was added, the cells were blown off and placed in the incubator for a further 44 hours. Cells were collected in a flow tube, centrifuged (800 rpm, 5 min) and washed twice with 4° C. cold PBS. Finally, 200 µL of binding buffer was added to resuspend the cells. After pipetting evenly, taken 100 µL of it into the flow tube, added 5 µL of AnnexinV-F647 and 10 µL of PI solution in sequence, and stain at room temperature for 15 minutes in the dark, then add 400 µL of PBS and mix evenly to stop the staining, and detection by a flow cytometer within 1 hour. Among them, the cells that were treated in a 50° C. water bath for 5 minutes and fixed with 4% paraformaldehyde for 5 minutes were added with 5 µL of AnnexinV-F647 solution and 10 µL of PI solution for staining for 15 minutes respectively. Cytometer for testing.

[6] = system: YNH-1; test: Cell proliferation inhibition assay (CCK8 method); assay type: cell-based; details: CD44-negative YNH-1

Structure (SMILES) | fluorescence quantification, bioluminescence imaging [1] | leukemia levels in the liver, spleen and bone marrow, flow cytometry ([2]; 4th day, 3 mice per group) | median survival time ([2]; VCR 0.50 mg/kg) [days] | proliferation of MV4-11-GFP-Luc cells, bioluminescence imaging ([2]; VCR 0.50 mg/kg, injections day 0 and day 2) | proliferation inhibition [3] | effect on cell cycle [4] | apoptosis [5] [%] | proliferation inhibition [6]
COc1cccc2c1C(=O)c1c(O)c3c(c(O)c1C2=O)C[C@@](O)(C(C)=O)C[C@@H]3O[C@H]1C[C@H](N)[C@H](O)[C@H](C)O1 [DNR, daunorubicin] | decreased slightly | – | – | – | – | – | – | –
CC[C@]1(O)C[C@H]2CN(CCc3c([nH]c4ccccc34)[C@@](C(=O)OC)(c3cc4c(cc3OC)N(C=O)[C@H]3[C@@](O)(C(=O)OC)[C@H](OC(C)=O)[C@]5(CC)C=CCN6CC[C@]43[C@@H]65)C2)C1 [VCR, vincristine sulfate] | – | reduced | 9 | proliferated slowly during drug administration, but proliferated rapidly after drug withdrawal | no significant difference | arresting cells in G2/M phase | 16.7 | no significant difference
